Experiments:
[1] = test system: Tyrosine-protein kinase ABL1 (Homo sapiens), P00519 [H396P]; settings: Compound concentration 1000.0 nM
[2] = molecular target: RAC-beta serine/threonine-protein kinase (Homo sapiens) (UniProt P31751); settings: Compound concentration 1000.0 nM
[3] = molecular target: Bone morphogenetic protein receptor type-1B (Homo sapiens) (UniProt O00238); settings: Compound concentration 1000.0 nM
[4] = molecular target: Calcium/calmodulin-dependent protein kinase type 1 (Homo sapiens) (UniProt Q14012); settings: Compound concentration 1000.0 nM
[5] = molecular target: Calcium/calmodulin-dependent protein kinase kinase 2 (Homo sapiens) (UniProt Q96RR4); settings: Compound concentration 1000.0 nM
[6] = molecular target: Cyclin-dependent kinase 13 (Homo sapiens) (UniProt Q14004); settings: Compound concentration 1000.0 nM
[7] = molecular target: Dual specificity protein kinase CLK1 (Homo sapiens) (UniProt P49759); settings: Compound concentration 1000.0 nM
[8] = molecular target: Dual specificity protein kinase CLK2 (Homo sapiens) (UniProt P49760); settings: Compound concentration 1000.0 nM
[9] = molecular target: Casein kinase I isoform delta (Homo sapiens) (UniProt P48730); settings: Compound concentration 1000.0 nM
[10] = molecular target: Ephrin type-A receptor 7 (Homo sapiens) (UniProt Q15375); settings: Compound concentration 1000.0 nM
[11] = molecular target: Ephrin type-B receptor 3 (Homo sapiens) (UniProt P54753); settings: Compound concentration 1000.0 nM
[12] = molecular target: Fibroblast growth factor receptor 4 (Homo sapiens) (UniProt P22455); settings: Compound concentration 1000.0 nM
[13] = molecular target: Vascular endothelial growth factor receptor 1 (Homo sapiens) (UniProt P17948); settings: Compound concentration 1000.0 nM
[14] = molecular target: Glycogen synthase kinase-3 alpha (Homo sapiens) (UniProt P49840); settings: Compound concentration 1000.0 nM
[15] = molecular target: Glycogen synthase kinase-3 beta (Homo sapiens) (UniProt P49841); settings: Compound concentration 1000.0 nM
[16] = molecular target: Homeodomain-interacting protein kinase 3 (Homo sapiens) (UniProt Q9H422); settings: Compound concentration 1000.0 nM
[17] = molecular target: Insulin receptor (Homo sapiens) (UniProt P06213); settings: Compound concentration 1000.0 nM
[18] = molecular target: Tyrosine-protein kinase JAK2 (Homo sapiens) (UniProt O60674); settings: Compound concentration 1000.0 nM
[19] = molecular target: Mitogen-activated protein kinase kinase kinase kinase 3 (Homo sapiens) (UniProt Q8IVH8); settings: Compound concentration 1000.0 nM
[20] = molecular target: MAP kinase-activated protein kinase 5 (Homo sapiens) (UniProt Q8IW41); settings: Compound concentration 1000.0 nM
[21] = molecular target: Dual specificity mitogen-activated protein kinase kinase 6 (Homo sapiens) (UniProt P52564); settings: Compound concentration 1000.0 nM
[22] = molecular target: Maternal embryonic leucine zipper kinase (Homo sapiens) (UniProt Q14680); settings: Compound concentration 1000.0 nM
[23] = molecular target: Tyrosine-protein kinase Mer (Homo sapiens) (UniProt Q12866); settings: Compound concentration 1000.0 nM
[24] = molecular target: MAP kinase-interacting serine/threonine-protein kinase 2 (Homo sapiens) (UniProt Q9HBH9); settings: Compound concentration 1000.0 nM
[25] = molecular target: Serine/threonine-protein kinase 24 (Homo sapiens) (UniProt Q9Y6E0); settings: Compound concentration 1000.0 nM
[26] = molecular target: Myosin-IIIa (Homo sapiens) (UniProt Q8NEV4); settings: Compound concentration 1000.0 nM
[27] = molecular target: Serine/threonine-protein kinase Nek2 (Homo sapiens) (UniProt P51955); settings: Compound concentration 1000.0 nM
[28] = molecular target: Mitogen-activated protein kinase 13 (Homo sapiens) (UniProt O15264); settings: Compound concentration 1000.0 nM
[29] = molecular target: Serine/threonine-protein kinase PAK 4 (Homo sapiens) (UniProt O96013); settings: Compound concentration 1000.0 nM
[30] = test system: Phosphatidylinositol 4,5-bisphosphate 3-kinase catalytic subunit alpha isoform (Homo sapiens), P42336 [E545K]; settings: Compound concentration 1000.0 nM
[31] = molecular target: Phosphatidylinositol 4-kinase beta (Homo sapiens) (UniProt Q9UBF8); settings: Compound concentration 1000.0 nM
[32] = molecular target: cAMP-dependent protein kinase catalytic subunit alpha (Homo sapiens) (UniProt P17612); settings: Compound concentration 1000.0 nM
[33] = molecular target: Serine/threonine-protein kinase D2 (Homo sapiens) (UniProt Q9BZL6); settings: Compound concentration 1000.0 nM
[34] = molecular target: Non-receptor tyrosine-protein kinase TYK2 (Homo sapiens) (UniProt P29597); settings: Compound concentration 1000.0 nM
[35] = molecular target: Vascular endothelial growth factor receptor 2 (Homo sapiens) (UniProt P35968); settings: Compound concentration 1000.0 nM
[36] = molecular target: Serine/threonine-protein kinase 25 (Homo sapiens) (UniProt O00506); settings: Compound concentration 1000.0 nM
[37] = molecular target: D(3) dopamine receptor (Homo sapiens) (UniProt P35462); settings: Compound concentration 10.0 uM
[38] = molecular target: T1, Muscarinic acetylcholine receptor M5 (Homo sapiens) (UniProt P08912); settings: Compound concentration 10.0 uM
T1 sequence (whole entry): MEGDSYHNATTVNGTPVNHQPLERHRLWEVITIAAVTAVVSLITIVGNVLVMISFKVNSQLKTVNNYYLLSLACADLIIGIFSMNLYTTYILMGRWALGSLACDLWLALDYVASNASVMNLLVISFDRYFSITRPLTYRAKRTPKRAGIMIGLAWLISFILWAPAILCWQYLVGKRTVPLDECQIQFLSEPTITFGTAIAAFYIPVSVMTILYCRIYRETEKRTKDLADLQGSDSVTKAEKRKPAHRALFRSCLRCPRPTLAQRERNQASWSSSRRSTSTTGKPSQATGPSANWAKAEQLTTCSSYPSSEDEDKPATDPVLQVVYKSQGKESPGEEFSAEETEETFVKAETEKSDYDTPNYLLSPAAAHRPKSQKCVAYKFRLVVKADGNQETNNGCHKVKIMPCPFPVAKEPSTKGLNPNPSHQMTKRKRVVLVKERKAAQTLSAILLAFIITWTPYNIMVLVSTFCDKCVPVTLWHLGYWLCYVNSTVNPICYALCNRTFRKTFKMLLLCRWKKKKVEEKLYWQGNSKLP

Sequence of Phosphatidylinositol 4-kinase beta (Homo sapiens) (Q9UBF8 2-816 limits assumed): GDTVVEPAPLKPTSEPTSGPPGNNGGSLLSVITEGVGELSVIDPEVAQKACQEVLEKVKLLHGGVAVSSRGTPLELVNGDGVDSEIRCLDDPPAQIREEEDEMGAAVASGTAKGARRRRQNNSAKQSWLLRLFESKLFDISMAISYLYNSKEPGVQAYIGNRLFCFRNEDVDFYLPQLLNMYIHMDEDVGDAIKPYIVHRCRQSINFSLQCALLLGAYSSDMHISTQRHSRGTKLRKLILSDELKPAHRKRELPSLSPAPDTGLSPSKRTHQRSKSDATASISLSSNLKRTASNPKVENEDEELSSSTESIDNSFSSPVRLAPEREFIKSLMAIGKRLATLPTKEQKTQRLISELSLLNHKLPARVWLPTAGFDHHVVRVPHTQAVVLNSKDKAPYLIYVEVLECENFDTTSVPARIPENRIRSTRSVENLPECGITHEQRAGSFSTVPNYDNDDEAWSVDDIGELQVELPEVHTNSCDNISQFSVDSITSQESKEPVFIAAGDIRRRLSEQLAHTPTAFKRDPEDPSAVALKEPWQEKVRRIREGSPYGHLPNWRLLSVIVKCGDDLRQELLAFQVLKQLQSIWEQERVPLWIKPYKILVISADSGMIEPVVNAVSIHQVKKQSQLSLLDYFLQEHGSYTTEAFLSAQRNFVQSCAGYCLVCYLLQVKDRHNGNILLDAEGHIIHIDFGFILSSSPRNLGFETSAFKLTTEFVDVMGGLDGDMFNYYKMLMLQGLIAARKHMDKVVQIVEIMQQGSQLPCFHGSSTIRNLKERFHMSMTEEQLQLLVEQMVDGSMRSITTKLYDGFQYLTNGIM
Sequence of Tyrosine-protein kinase JAK2 (Homo sapiens) (O60674 whole entry): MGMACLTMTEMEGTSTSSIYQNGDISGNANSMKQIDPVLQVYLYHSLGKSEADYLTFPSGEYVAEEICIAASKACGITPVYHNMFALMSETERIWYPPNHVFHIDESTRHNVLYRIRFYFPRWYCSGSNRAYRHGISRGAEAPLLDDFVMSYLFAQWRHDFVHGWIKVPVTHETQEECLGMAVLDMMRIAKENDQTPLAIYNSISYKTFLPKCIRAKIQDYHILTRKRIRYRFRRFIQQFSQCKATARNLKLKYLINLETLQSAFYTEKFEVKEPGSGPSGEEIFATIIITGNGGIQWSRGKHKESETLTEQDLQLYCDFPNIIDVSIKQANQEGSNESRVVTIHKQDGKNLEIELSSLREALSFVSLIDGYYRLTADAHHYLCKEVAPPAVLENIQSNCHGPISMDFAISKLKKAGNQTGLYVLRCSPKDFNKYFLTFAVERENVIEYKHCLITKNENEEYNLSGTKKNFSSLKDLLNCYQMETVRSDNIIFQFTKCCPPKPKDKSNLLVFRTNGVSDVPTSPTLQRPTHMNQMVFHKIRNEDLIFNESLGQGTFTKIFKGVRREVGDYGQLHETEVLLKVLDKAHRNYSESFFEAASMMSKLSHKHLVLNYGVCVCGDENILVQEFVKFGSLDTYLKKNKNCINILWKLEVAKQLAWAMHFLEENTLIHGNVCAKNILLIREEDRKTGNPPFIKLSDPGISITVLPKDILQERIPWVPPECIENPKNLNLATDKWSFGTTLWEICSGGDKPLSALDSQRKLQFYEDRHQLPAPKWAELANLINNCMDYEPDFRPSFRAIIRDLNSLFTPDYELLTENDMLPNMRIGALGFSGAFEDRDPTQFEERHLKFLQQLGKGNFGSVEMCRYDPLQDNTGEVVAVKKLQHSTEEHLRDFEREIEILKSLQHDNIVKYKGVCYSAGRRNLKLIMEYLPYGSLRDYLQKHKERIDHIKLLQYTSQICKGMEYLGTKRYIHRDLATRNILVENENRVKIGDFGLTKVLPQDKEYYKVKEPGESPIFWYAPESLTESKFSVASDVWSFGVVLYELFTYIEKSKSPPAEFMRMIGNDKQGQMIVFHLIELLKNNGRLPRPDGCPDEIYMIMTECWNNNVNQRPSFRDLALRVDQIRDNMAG
Sequence of Dual specificity protein kinase CLK1 (Homo sapiens) (P49759 whole entry, looked up): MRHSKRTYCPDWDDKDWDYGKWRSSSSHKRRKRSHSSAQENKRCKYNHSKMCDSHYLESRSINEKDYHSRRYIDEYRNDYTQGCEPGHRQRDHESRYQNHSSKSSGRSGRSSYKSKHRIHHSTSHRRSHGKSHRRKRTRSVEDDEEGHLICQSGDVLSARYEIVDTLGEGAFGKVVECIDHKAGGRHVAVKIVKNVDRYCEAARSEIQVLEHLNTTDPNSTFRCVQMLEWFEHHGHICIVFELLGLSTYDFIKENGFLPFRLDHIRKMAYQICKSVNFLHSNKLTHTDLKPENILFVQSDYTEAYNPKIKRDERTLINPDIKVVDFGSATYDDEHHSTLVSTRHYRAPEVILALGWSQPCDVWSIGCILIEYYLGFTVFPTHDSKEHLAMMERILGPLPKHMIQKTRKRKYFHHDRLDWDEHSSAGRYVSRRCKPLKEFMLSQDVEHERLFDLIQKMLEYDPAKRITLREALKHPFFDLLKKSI
Sequence of Ephrin type-B receptor 3 (Homo sapiens) (P54753 whole entry): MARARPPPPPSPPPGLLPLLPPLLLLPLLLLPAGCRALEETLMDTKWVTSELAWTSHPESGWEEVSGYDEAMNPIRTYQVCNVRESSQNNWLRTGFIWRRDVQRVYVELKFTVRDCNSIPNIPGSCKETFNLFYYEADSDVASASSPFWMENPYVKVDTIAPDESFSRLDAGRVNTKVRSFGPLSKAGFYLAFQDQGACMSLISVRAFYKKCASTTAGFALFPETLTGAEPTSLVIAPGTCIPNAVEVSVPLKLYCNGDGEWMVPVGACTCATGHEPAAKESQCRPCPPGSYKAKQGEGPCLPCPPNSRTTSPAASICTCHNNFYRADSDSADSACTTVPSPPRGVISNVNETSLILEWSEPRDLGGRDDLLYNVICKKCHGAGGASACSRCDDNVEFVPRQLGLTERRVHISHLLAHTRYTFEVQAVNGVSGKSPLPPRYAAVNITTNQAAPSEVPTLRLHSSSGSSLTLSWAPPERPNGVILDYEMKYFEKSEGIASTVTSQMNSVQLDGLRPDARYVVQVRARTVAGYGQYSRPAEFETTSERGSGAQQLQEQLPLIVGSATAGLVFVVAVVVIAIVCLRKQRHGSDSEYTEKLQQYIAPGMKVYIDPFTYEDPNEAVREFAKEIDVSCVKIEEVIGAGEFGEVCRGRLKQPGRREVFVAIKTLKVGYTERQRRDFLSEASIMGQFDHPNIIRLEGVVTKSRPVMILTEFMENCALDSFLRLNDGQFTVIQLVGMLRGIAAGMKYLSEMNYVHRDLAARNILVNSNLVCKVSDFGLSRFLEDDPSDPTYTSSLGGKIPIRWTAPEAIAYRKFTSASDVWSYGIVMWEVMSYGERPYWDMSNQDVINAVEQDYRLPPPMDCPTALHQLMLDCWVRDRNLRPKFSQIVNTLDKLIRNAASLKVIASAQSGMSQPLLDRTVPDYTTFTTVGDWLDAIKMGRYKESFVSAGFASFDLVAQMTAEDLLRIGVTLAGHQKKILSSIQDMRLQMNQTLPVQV
Sequence of Dual specificity protein kinase CLK2 (Homo sapiens) (P49760 whole entry, looked up, canonical isoform): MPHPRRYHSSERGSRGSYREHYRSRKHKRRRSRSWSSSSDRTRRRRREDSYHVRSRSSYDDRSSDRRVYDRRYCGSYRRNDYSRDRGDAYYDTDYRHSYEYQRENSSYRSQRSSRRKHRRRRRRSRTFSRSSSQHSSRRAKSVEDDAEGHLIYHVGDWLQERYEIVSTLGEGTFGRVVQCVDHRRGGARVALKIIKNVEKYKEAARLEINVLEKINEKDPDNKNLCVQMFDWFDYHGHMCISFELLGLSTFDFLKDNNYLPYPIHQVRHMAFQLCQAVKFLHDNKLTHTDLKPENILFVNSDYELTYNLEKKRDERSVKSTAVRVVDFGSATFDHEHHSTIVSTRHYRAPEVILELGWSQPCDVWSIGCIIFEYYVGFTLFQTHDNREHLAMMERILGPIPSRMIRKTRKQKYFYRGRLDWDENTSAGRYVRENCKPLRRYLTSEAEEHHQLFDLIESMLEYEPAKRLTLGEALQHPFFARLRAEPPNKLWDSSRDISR
Sequence of Serine/threonine-protein kinase 24 (Homo sapiens) (Q9Y6E0 whole entry, looked up): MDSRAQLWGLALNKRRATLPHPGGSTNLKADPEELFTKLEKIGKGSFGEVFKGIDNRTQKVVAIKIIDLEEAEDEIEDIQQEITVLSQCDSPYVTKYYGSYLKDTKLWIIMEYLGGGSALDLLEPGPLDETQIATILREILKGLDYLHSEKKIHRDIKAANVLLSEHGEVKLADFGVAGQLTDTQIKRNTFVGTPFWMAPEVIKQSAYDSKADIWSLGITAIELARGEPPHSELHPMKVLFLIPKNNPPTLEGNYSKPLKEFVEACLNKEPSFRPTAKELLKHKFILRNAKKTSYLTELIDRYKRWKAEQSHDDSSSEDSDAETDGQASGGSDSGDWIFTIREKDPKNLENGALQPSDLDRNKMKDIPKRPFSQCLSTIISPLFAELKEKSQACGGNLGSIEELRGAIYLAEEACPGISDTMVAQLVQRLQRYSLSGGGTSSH
Sequence of MAP kinase-activated protein kinase 5 (Homo sapiens) (Q8IW41 whole entry): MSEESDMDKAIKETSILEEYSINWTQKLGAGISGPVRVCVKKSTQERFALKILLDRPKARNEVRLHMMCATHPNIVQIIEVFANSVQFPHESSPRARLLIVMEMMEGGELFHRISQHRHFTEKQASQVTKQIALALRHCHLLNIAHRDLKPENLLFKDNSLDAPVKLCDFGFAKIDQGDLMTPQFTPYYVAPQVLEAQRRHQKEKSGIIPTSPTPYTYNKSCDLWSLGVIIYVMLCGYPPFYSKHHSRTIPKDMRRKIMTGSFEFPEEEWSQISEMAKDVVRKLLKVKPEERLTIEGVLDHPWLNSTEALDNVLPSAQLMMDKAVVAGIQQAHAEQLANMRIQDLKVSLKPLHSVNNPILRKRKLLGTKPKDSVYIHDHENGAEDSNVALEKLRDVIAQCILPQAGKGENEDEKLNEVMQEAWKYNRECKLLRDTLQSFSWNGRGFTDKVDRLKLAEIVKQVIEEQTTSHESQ

CN(C)CC#Cc1ccc(OCCCc2sc(N3CCc4cccc(C(=O)Nc5nc6ccccc6s5)c4C3)nc2C(=O)O)c(F)c1 [A-1155463]
inactive: residual activity [1] 100% | residual activity [2] 100% | residual activity [3] 84% | residual activity [4] 93% | residual activity [5] 100% | residual activity [6] 100% | residual activity [7] 88% | residual activity [8] 83% | residual activity [9] 95% | residual activity [10] 99% | residual activity [11] 100% | residual activity [12] 100% | residual activity [13] 92% | residual activity [14] 89% | residual activity [15] 93% | residual activity [16] 87% | residual activity [17] 92% | residual activity [18] 100% | residual activity [19] 92% | residual activity [20] 99% | residual activity [21] 100% | residual activity [22] 78% | residual activity [23] 100% | residual activity [24] 75% | residual activity [25] 93% | residual activity [26] 100% | residual activity [27] 92% | residual activity [28] 97% | residual activity [29] 96% | residual activity [30] 95% | residual activity [31] 100% | residual activity [32] 89% | residual activity [33] 84% | residual activity [34] 75% | residual activity [35] 100% | residual activity [36] 100% | inhibition [37] 2.01% | inhibition [38] 12.6%

From ChEMBL document CHEMBL4507311, “Data for DCP probe A-1155463” (2021)
